{"source": "patent US20110201569A1", "about": "“Methods For Treating Myocardial Disorders” (priority 2009, published 2011)", "format_in_all_cases": "in vivo, mouse", "key": {"TIMP-1": {"tested_on": "TIMP-1", "experiment": "qRT-PCR of TIMP-1 mRNA in left ventricle after TAC/sham", "procedure": "(§1) 11 to 13 week old male C57BL/6 mice were purchased from Charles River (Germany). Mice were housed in individually ventilated pathogen-free cages with free access to water and standard rodent chow. The animals were handled according to the principles of laboratory animal care (NIH publication No. 85-23, revised 1996), and animal procedures were approved by the local committee for animal care.\n(§2) The first injection was performed 5 min prior to TAC or sham-operation procedure (described below) and repeated 4, 8, 12, 24, 36, 48 and 60 hrs after surgery. Animals were randomly assigned into two groups, receiving either a tetrasodium salt of the compound of formula 1 (hereinafter “Eritoran tetrasodium”) or placebo. The catheter was flushed with 50 μl 0.9% NaCl before and 100 μl after each injection of 50 μl Eritoran tetrasodium (2.5 mg/ml vehicle; 5 mg/kg bodyweight/application; dosage adopted from Shimamoto et al., Circulation 2006, 114: 1270-1274) or placebo solution.\nTreatment groups were separated into two subgroups, undergoing transverse aortic constriction (TAC) or sham operation. […]\n(§3) Quantitative real-time PCR analysis was completed. […] RNA was dissolved in 100 μl of RNase-free water, and concentration was determined photometrically (absorbance at 260 nm) before storage at −80° C. […]\n(§4) Real-time PCR was performed according to the manufacturer's protocol. […] Each sample was measured in triplicate wells and underwent 40 cycles of amplification on an ABI PRISM® Sequence Detection System (Applied Biosystems). CT values were determined with SDS Software 2.2 (Applied Biosystems) and relative quotients (RQ) were calculated following the ΔΔCT method (RQ target gene/GAPDH).\nStatistics were calculated using Prism 4.05 (GraphPad Software Inc., CA, USA). All values are expressed as mean (M)±SEM. One-way ANOVA with Newman-Keuls post-hoc testing was performed for statistical analysis with the exception of TIMP and cytokine expression which were analysed with Kruskal-Wallis and Dunn's multiple comparison post-hoc testing Impact of TAC-Eritoran on IL-10 expression was analysed with Two-way ANOVA. […]"}, "Tristetraprolin (TTP)": {"tested_on": "Tristetraprolin (TTP)", "experiment": "qRT-PCR of TTP mRNA in left ventricle after TAC/sham", "settings": "Example 1, three days after surgery", "procedure": "as §1\n(§5) The first injection was performed 5 min prior to TAC or sham-operation procedure (described below) and repeated 4, 8, 12, 24, 36, 48 and 60 hrs after surgery. […]\nas §3, §4\n(§6) Statistics were calculated using Prism 4.05 (GraphPad Software Inc., CA, USA). All values are expressed as mean (M)±SEM. […]"}, "[1]": {"tested_on": "total matrix metalloproteinase (MMP-2+MMP-9)", "experiment": "Total MMP mRNA (MMP-2+MMP-9) calculated from qRT-PCR", "settings": "Example 1; TAC vs sham within treated groups; three days after surgery", "procedure": "as §1, §5, §3, §4, §6"}, "TLR4": {"tested_on": "TLR4", "experiment": "qRT-PCR of TLR4 mRNA in left ventricle after TAC/sham"}, "[2]": {"tested_on": "matrix metalloproteinase-9 (MMP-9)", "experiment": "qRT-PCR of MMP-9 mRNA in left ventricle after TAC/sham", "procedure": "as §1, §5, §3, §4, §6"}, "TNF-α": {"tested_on": "TNF-α", "experiment": "qRT-PCR of TNF-α mRNA in left ventricle after TAC/sham", "settings": "Example 1, TAC, three days after surgery, M ± SEM", "procedure": "as §1, §5, §3, §4, §6"}, "C57BL/6 mice": {"tested_on": "C57BL/6 mice", "experiment": "Cardiac biometric parameters (left ventricular weight) three days after transverse aortic constriction (TAC) or sham operation", "from_the_text": "as §1\nTo allow for repetitive intravenous injections, a venous port was implanted. Mice were anesthetized with isoflurane 2.0 vol % (Forene®, Abbott GmbH, Germany). Body temperature was maintained at 37° C. The jugular vein was exposed and a catheter (outer diameter 0.64 mm, Dow Corning Europe, Wiesbaden, Germany) inserted into the vessel via a small incision. The catheter was secured with a silk thread and tissue adhesive (Histoacryl, Braun, Germany). Finally, the catheter was tunneled subcutaneously and connected to an extracutaneous port through an incision between scapulae.\nas §2\nTreatment groups were separated into two subgroups, undergoing transverse aortic constriction (TAC) or sham operation. Surgery for TAC was achieved as published previously (see, e.g., Baumgarten et al., Circulation 2002, 105: 2192-2197 and Baumgarten et al., Basic Res Cardiol 2006, 101: 427-435). Mice were intubated in a supine position and mechanical ventilation was initiated (MiniVent 845, Hugo Sachs Elektronik, Germany). A left parasternal incision was performed. A suture was passed underneath the aorta and tied down on a 27 Gauge needle, which was immediately removed and allowed to achieve a standardised and previously validated decreased diameter of the aorta. For sham operation the suture was passed underneath the aorta without ligation. For analgesia, mice received a single intraperitoneal injection of 0.065 mg/kg BW buprenorphine.\nThree days after TAC or sham operation, the impact on cardiac biometric parameters was investigated. Body weight was registered. Heart and lung were excised, prepared and immediately measured. Total heart weight, left ventricular weight as well as lung weight and tibia length were recorded. Ventricles were snap frozen in liquid nitrogen and kept at −80° C.\nStatistics were calculated using Prism 4.05 (GraphPad Software Inc., CA, USA). All values are expressed as mean (M)±SEM. One-way ANOVA with Newman-Keuls post-hoc testing was performed for statistical analysis with the exception of TIMP and cytokine expression which were analysed with Kruskal-Wallis and Dunn's multiple comparison post-hoc testing Impact of TAC-Eritoran on IL-10 expression was analysed with Two-way ANOVA. Differences between experimental groups were considered to be significant with p<0.05.\nExample 2 was completed in a manner similar to Example 1, with minor changes as described below.\nWith the consent of proper authority (LANUV), 12 week old male C57BL/6-mice were anesthetized with Isofluran (2.0 Vol. %) and a catheter was implanted into the right jugular vein. Afterwards, either transverse aortic constriction (TAC) or a sham operation was performed. In TAC animals, the aortic diameter was reduced by 70% with a 6-0 silk filament. Mice received either the compound of formula (I) or placebo i.v. 5 minutes prior to TAC/sham-operation and 6 h, 12 h, 24 h, 36 h, 48 h and 60 h after surgery. […]"}, "TIMP-4": {"tested_on": "TIMP-4", "experiment": "qRT-PCR of TIMP-4 mRNA in left ventricle after TAC/sham", "procedure": "as §1, §5, §3, §4, §6"}, "IL-1β": {"tested_on": "IL-1β", "experiment": "qRT-PCR of IL-1β mRNA in left ventricle after TAC/sham", "settings": "Example 2; TAC treated vs TAC-placebo", "procedure": "as §1, §5, §3, §4, §6"}, "[3]": {"tested_on": "brain natriuretic peptide (BNP)", "experiment": "qRT-PCR of BNP mRNA in left ventricle after TAC/sham", "settings": "Example 2; TAC treated vs TAC-placebo", "procedure": "as §1, §5, §3, §4, §6"}, "[4]": {"settings": "Example 1, TAC vs sham-operated, 5 mg/kg i.v. per application, three days after surgery"}, "[5]": {"settings": "Example 2, TAC treated vs TAC-placebo"}}, "note": "“Also recorded” adds a separate entry of the source."}
{"smiles": "CCCCCC/C=C\\CCCCCCCCCC(=O)N[C@H]1[C@H](OC[C@H]2O[C@H](OP(=O)([O-])[O-])[C@H](NC(=O)CC(=O)CCCCCCCCCCC)[C@@H](OCCCCCCCCCC)[C@@H]2O)O[C@H](COC)[C@@H](OP(=O)([O-])[O-])[C@@H]1OCC[C@@H](CCCCCCC)OC.[Na+].[Na+].[Na+].[Na+]", "note": "[Eritoran tetrasodium]", "values": [{"measurement": "TIMP-1 mRNA expression", "setting": "TIMP-1; Example 1, TAC, three days after surgery, RQ target gene/GAPDH", "value": "23.20±14.52"}, {"measurement": "TIMP-1 mRNA expression", "setting": "TIMP-1; Example 1, sham operation, three days after surgery, RQ target gene/GAPDH", "value": "1.16±0.40"}, {"measurement": "TTP/TNFα ratio", "setting": "Tristetraprolin (TTP); TAC", "value": "0.61±0.33"}, {"measurement": "TTP/TNFα ratio", "setting": "Tristetraprolin (TTP); sham operation", "value": "1.40±0.33"}, {"measurement": "total MMP mRNA level (MMP-2+MMP-9)", "setting": "[1]", "value": "remained unchanged by aortic banding"}, {"measurement": "TLR4 mRNA expression", "setting": "TLR4; Example 1, TAC, three days after surgery", "value": "no significant effects"}, {"measurement": "TLR4 mRNA expression", "setting": "TLR4; Example 1, sham operation, three days after surgery", "value": "had no effects on the mRNA expression"}, {"measurement": "MMP-9 mRNA level", "setting": "[2]; Example 1, TAC vs sham within treated groups, three days after surgery", "value": "remained unchanged by aortic banding"}, {"measurement": "TNF mRNA level", "setting": "TNF-α", "value": "1.32±0.19"}, {"measurement": "left ventricular weight/body weight (LVW/BW)", "setting": "C57BL/6 mice; [4]", "value": "did not differ from sham-operated mice"}, {"measurement": "left ventricular weight/tibia length (LVW/TL)", "setting": "C57BL/6 mice; [4]", "value": "did not differ from sham-operated mice"}, {"measurement": "left ventricular weight (LVW)", "setting": "C57BL/6 mice; Example 1, TAC, 5 mg/kg i.v. per application, three days after surgery", "value": "81.32 ± 4.21", "unit": "mg"}, {"measurement": "cardiac hypertrophy after TAC", "setting": "C57BL/6 mice; Example 1, TAC, 5 mg/kg i.v. per application, three days after surgery, 5 mg/kg", "value": "decreases cardiac hypertrophy after TAC; also recorded: diminished cardiac hypertrophy induced by pressure overload"}, {"measurement": "TIMP-4 mRNA expression", "setting": "TIMP-4; Example 1, sham and TAC groups, three days after surgery", "value": "no significant differences between groups"}]}
{"smiles": "CCCCCC/C=C\\CCCCCCCCCC(=O)N[C@H]1[C@H](OC[C@H]2O[C@H](OP(=O)(O)O)[C@H](NC(=O)CC(=O)CCCCCCCCCCC)[C@@H](OCCCCCCCCCC)[C@@H]2O)O[C@H](COC)[C@@H](OP(=O)(O)O)[C@@H]1OCC[C@@H](CCCCCCC)OC", "note": "[compound of formula (I), α-D-Glucopyranose, 3-O-decyl-2-deoxy-6-O-[2-deoxy-3-O-[(3R)-3-methoxydecyl)-6-O-methyl-2-[[(−11Z)-1-oxo-11-octadecenyl)amino]-4-O-phosphono-β-D-glucopyranosyl]-2-[(1,3-dioxotetradecyl)amino]-1-(dihydrogen phosphate)]", "values": [{"measurement": "IL-1β mRNA expression", "setting": "IL-1β", "value": "lower"}, {"measurement": "TIMP-1 mRNA expression", "setting": "TIMP-1; [5]", "value": "higher"}, {"measurement": "TLR4 mRNA expression", "setting": "TLR4; [5]", "value": "significantly reduced"}, {"measurement": "MMP-9 mRNA expression", "setting": "[2]; [5]", "value": "higher in the TAC-placebo animals compared to the TAC groups treated"}, {"measurement": "left ventricle weight (LVW)", "setting": "C57BL/6 mice; Example 2, TAC, i.v. 5 min prior to and 6-60 h after surgery, three days after surgery", "value": "81.32 ± 4.2", "unit": "mg"}, {"measurement": "development of cardiac hypertrophy", "setting": "C57BL/6 mice; Example 2, murine model of transverse aortic constriction (TAC)", "value": "prevents the development of cardiac hypertrophy"}, {"measurement": "TIMP-4 mRNA expression", "setting": "TIMP-4; [5]", "value": "higher"}, {"measurement": "BNP mRNA expression", "setting": "[3]", "value": "elevated in TAC-placebo mice compared to sham and the TAC groups treated"}]}
